Among the test systems are OVCAR-3 ovarian; OVCAR-5 ovarian; CAKI-1 renal; A549 NSCLC; SF-539 CNS; IGROV1 ovarian; UO-31 renal; KM12 colon; M14 melanoma; UACC-62 melanoma.
Holding throughout (experiment): growth of human tumour cells (NCI), 48 h

“And” between values parts separate entries of the source, which are not always exact repeats. Equal entries are not always repeated.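 Exposure lasted 48 hours, with cells grown in 96-well plates and compounds tested at five concentrations. GI50: concentration for 50% inhibition of growth. TGI: total growth inhibition.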

Regarding `CC[C@@]1(O)C(=O)OCc2c1cc1n(c2=O)Cc2cc3c(CN(C)C)c(O)ccc3nc2-1`, the GI50 in the experiment with OVCAR-3 ovarian was 0.107 µM and 0.124 µM and 0.551 µM; in the experiment with OVCAR-5 ovarian, 0.168 µM and 0.217 µM and 0.407 µM; in the experiment on CAKI-1 renal, < 0.01 µM and 0.00506 µM; in the experiment on A549 NSCLC, 0.0545 µM and 0.08 µM; in the experiment on SF-539 CNS it was < 0.01 µM and 0.00383 µM and 0.0215 µM; in the experiment with IGROV1 ovarian it was 0.231 µM and 0.116 µM and 0.392 µM. The GI50 in the experiment on UO-31 renal is 0.0169 µM and 0.118 µM and 0.0299 µM; with KM12 colon, 0.15 µM and 0.413 µM and 0.35 µM. In addition, the TGI in the experiment with OVCAR-3 ovarian was 1.37 µM and 7.71 µM and 2.12 µM; with UO-31 renal it was 0.273 µM and 1.89 µM and 0.607 µM; in the experiment with KM12 colon it was 7.58 µM and 15.1 µM and 12.2 µM.

For the compound `Cc1ccc(NC(=O)CC(=O)N2N=C(N3CCCCC3)CC2c2ccccc2)cc1` (centres undefined), the TGI in the experiment with OVCAR-3 ovarian, in the experiment with OVCAR-5 ovarian, in the experiment with CAKI-1 renal, in the experiment with M14 melanoma, in the experiment with A549 NSCLC and in the experiment with IGROV1 ovarian was > 100 µM each time. Further, the TGI in the experiment with UACC-62 melanoma, in the experiment with UO-31 renal and in the experiment with KM12 colon was > 100 µM each time.

As for `COc1ccc2nc3c(C)cc4ccccc4n3c2c1`, the TGI in the experiment on OVCAR-3 ovarian, in the experiment with OVCAR-5 ovarian, with M14 melanoma, in the experiment on A549 NSCLC, in the experiment on SF-539 CNS and with IGROV1 ovarian was > 100 µM throughout. For the same compound, the TGI in the experiment on UACC-62 melanoma, with UO-31 renal and with KM12 colon was > 100 µM throughout.

As for `O=C1CNc2cc(N3CCOCC3)ccc2N1`, the TGI in the experiment with OVCAR-3 ovarian, in the experiment on OVCAR-5 ovarian, in the experiment on CAKI-1 renal, in the experiment on M14 melanoma, in the experiment on A549 NSCLC and in the experiment with IGROV1 ovarian was > 100 µM in each case. The TGI in the experiment with UACC-62 melanoma, in the experiment with UO-31 renal and in the experiment on KM12 colon was > 100 µM each time.

Turning to `O=C(CSc1nnc(Cc2ccccc2)o1)Nc1ccc(Cl)cc1[N+](=O)[O-]`, the TGI in the experiment on M14 melanoma came to 32.9 µM; in the experiment on A549 NSCLC, 35.6 µM; in the experiment on UACC-62 melanoma, 30.5 µM; in the experiment with UO-31 renal it was 49.4 µM.

Turning to `C=C1C2C[C@@H]3O[C@H]4C[C@H]5O[C@@]6(C[C@@H]7O[C@]8(C[C@H](C)[C@@H]9O[C@@H]%10CC(C=O)O[C@@H]%10C[C@@H]9O8)C[C@H](C)[C@@H]7O6)C[C@H]5O[C@H]4[C@H](C)[C@H]3OC(=O)C[C@H]3CC[C@@H]4OC5[C@H]6O[C@]7(CC[C@H]8CC(=C)[C@H](CC[C@@H](C[C@H]1C)O2)O8)CC6O[C@@H]5[C@@H](O7)[C@H]4O3` (some centres undefined), the TGI with OVCAR-3 ovarian, in the experiment with CAKI-1 renal, in the experiment with M14 melanoma, in the experiment on A549 NSCLC, with IGROV1 ovarian and with UACC-62 melanoma was > 1 µM each time. Moreover, the TGI with UO-31 renal is > 1 µM.

In the case of `O=C1N=CN=C2C=CC(Cl)=C(I)C12` (centres undefined), the TGI in the experiment with OVCAR-3 ovarian, in the experiment on OVCAR-5 ovarian, with CAKI-1 renal, in the experiment with M14 melanoma, in the experiment on A549 NSCLC and with IGROV1 ovarian was > 100 µM throughout. Moreover, the TGI in the experiment with UACC-62 melanoma is > 100 µM; in the experiment on UO-31 renal it was 65.7 µM; in the experiment with KM12 colon it was > 100 µM.

As to `Cc1ccc(C(=O)O)c(/C=C2\Cc3cc(C)cc(C)c3C2=O)c1`, the TGI with OVCAR-3 ovarian, in the experiment with CAKI-1 renal, with A549 NSCLC, in the experiment with SF-539 CNS, with IGROV1 ovarian and with UACC-62 melanoma was > 100 µM each time. Besides, the TGI in the experiment on UO-31 renal and in the experiment on KM12 colon was > 100 µM in each case.

For the compound `CN1C(=O)N/C(=C\c2ccc(S(=O)(=O)N/N=C/c3ccccc3)cc2)C1=O`, the TGI with OVCAR-3 ovarian, with OVCAR-5 ovarian, in the experiment on CAKI-1 renal, in the experiment on M14 melanoma, in the experiment with A549 NSCLC and in the experiment with IGROV1 ovarian was > 100 µM throughout. Also, the values for the TGI in the experiment on UACC-62 melanoma, in the experiment on UO-31 renal and in the experiment on KM12 colon were > 100 µM, > 100 µM and 82.1 µM, respectively.

For `COc1ccc(C2CC(c3ccc(NS(=O)(=O)c4cc([N+](=O)[O-])ccc4C)cc3)=NN2S(=O)(=O)c2cc([N+](=O)[O-])ccc2C)cc1` (centres undefined), the TGI in the experiment on OVCAR-3 ovarian, in the experiment on OVCAR-5 ovarian, with CAKI-1 renal, in the experiment on M14 melanoma, with A549 NSCLC and with IGROV1 ovarian was > 100 µM throughout. The TGI in the experiment on UACC-62 melanoma, in the experiment on UO-31 renal and with KM12 colon was > 100 µM in each case.

For the compound `Cc1cc(O)c2c(c1)C(C1OC(CO)C(O)C(O)C1O)c1cc(O)cc(O)c1C2=O` (centres undefined), the TGI with OVCAR-3 ovarian, with OVCAR-5 ovarian, in the experiment with M14 melanoma, with A549 NSCLC, in the experiment on IGROV1 ovarian and in the experiment on UACC-62 melanoma was > 100 µM throughout. Besides, the TGI with UO-31 renal is > 100 µM.

In the case of `COc1ccc(C[n+]2cccc(O)c2)cc1`, the TGI with OVCAR-3 ovarian, in the experiment on OVCAR-5 ovarian, in the experiment on M14 melanoma, with A549 NSCLC, in the experiment on SF-539 CNS and in the experiment with IGROV1 ovarian was > 100 µM throughout. Besides, the TGI with UACC-62 melanoma, with UO-31 renal and in the experiment with KM12 colon was > 100 µM throughout.

Turning to `Cc1ccc(N=NN(C)C(C)C(O)Cc2ccccc2)cc1` (centres undefined), the TGI in the experiment on OVCAR-3 ovarian, with OVCAR-5 ovarian, with CAKI-1 renal, in the experiment with M14 melanoma, in the experiment on A549 NSCLC and in the experiment on IGROV1 ovarian was > 100 µM each time. Besides, the TGI with UACC-62 melanoma, in the experiment with UO-31 renal and with KM12 colon was > 100 µM throughout.

Take `O=S(=O)(Nc1nccs1)c1ccc([As](=O)(O)O)cc1`: the TGI with OVCAR-3 ovarian, with OVCAR-5 ovarian, in the experiment on CAKI-1 renal, in the experiment on M14 melanoma, in the experiment with A549 NSCLC and in the experiment with IGROV1 ovarian was > 100 µM throughout. The TGI in the experiment with UACC-62 melanoma, in the experiment with UO-31 renal and in the experiment on KM12 colon was > 100 µM in each case.

Regarding `CC(C)=CC1C(COC(=O)c2ccccc2Cl)C1(C)C` (centres undefined), the TGI with OVCAR-3 ovarian was 75.8 µM; in the experiment on OVCAR-5 ovarian, > 100 µM; in the experiment with CAKI-1 renal, > 100 µM; in the experiment on M14 melanoma, > 100 µM; in the experiment with A549 NSCLC, > 100 µM; with IGROV1 ovarian, 57.6 µM. Moreover, the TGI is > 100 µM in the experiment with UACC-62 melanoma, > 100 µM in the experiment on UO-31 renal and 99.1 µM in the experiment with KM12 colon.

On to `COc1ccc(C(=O)N2CCN(c3ccc4c(c3)OCC(=O)N4)CC2)cc1OC`, for which the TGI in the experiment with OVCAR-3 ovarian, in the experiment on OVCAR-5 ovarian, in the experiment on M14 melanoma, in the experiment on A549 NSCLC, in the experiment on SF-539 CNS and with IGROV1 ovarian was > 100 µM throughout. For the same compound, the TGI with UACC-62 melanoma, with UO-31 renal and in the experiment with KM12 colon was > 100 µM throughout.

For `CCOC(=O)c1cc(-c2ccc([N+](=O)[O-])cc2)c([N+](=O)[O-])[nH]1`, the TGI with OVCAR-3 ovarian, in the experiment on OVCAR-5 ovarian, in the experiment with M14 melanoma, in the experiment on A549 NSCLC, in the experiment with SF-539 CNS and with IGROV1 ovarian was > 10 µM each time. Besides, the results for the TGI with UACC-62 melanoma, in the experiment on UO-31 renal and in the experiment with KM12 colon were > 10 µM, 9.69 µM and > 10 µM, respectively.

For `Fc1cc(C2=Nn3c(CNc4ccc(Cl)cc4)nnc3S/C2=C\c2ccc(-c3ccc(Cl)cc3)o2)c(Cl)cc1Cl`, the TGI in the experiment on OVCAR-3 ovarian was > 100 µM; with OVCAR-5 ovarian, 98.5 µM; in the experiment with CAKI-1 renal it was 72.4 µM; with M14 melanoma, > 100 µM; with A549 NSCLC, > 100 µM; with IGROV1 ovarian, > 100 µM. The TGI with UACC-62 melanoma is 55.8 µM; in the experiment on UO-31 renal, > 100 µM; in the experiment on KM12 colon it was > 100 µM.

Take `CSCCC(NC(=O)Cc1ccc(C(=O)c2ccccc2)cc1)C(=O)N1CCN(CCCCN2c3ccccc3Sc3cc(N=[N+]=[N-])ccc32)CC1` (centres undefined): the TGI with OVCAR-3 ovarian, in the experiment with OVCAR-5 ovarian, in the experiment on CAKI-1 renal, in the experiment on IGROV1 ovarian, in the experiment with UACC-62 melanoma and in the experiment with UO-31 renal was > 100 µM in each case. The TGI in the experiment on KM12 colon was > 100 µM.

Regarding `Fc1ccc(Oc2nc3ccccc3nc2-c2ccccc2)cc1`, the TGI in the experiment on OVCAR-3 ovarian, in the experiment on OVCAR-5 ovarian, with CAKI-1 renal, with IGROV1 ovarian, in the experiment on UACC-62 melanoma and in the experiment on UO-31 renal was > 100 µM throughout. Further, in the experiment on KM12 colon, the TGI was > 100 µM.

Turning to `CCCCC(O)(c1ccccc1)C(O)(c1ccccc1)c1c(F)c(F)c(F)c(F)c1F` (centres undefined), the TGI in the experiment on OVCAR-3 ovarian was 32.6 µM; in the experiment on OVCAR-5 ovarian, 41.1 µM; with M14 melanoma it was > 100 µM; in the experiment with A549 NSCLC, > 100 µM; in the experiment on IGROV1 ovarian it was > 100 µM; in the experiment on UACC-62 melanoma, 39.2 µM. For the same compound, the TGI in the experiment on UO-31 renal was determined as 88.4 µM.

For the compound `CC(O)CC(=O)CO[C@H]1[C@H](O)[C@@H](O)[C@@H](O)[C@@H]2NC(=O)c3c(cc4c(c3O)OCO4)[C@H]21` (some centres undefined), the TGI in the experiment with OVCAR-3 ovarian worked out at 0.609 µM; in the experiment on OVCAR-5 ovarian it was 0.48 µM; with M14 melanoma, 0.149 µM; in the experiment with A549 NSCLC, 0.352 µM; in the experiment on SF-539 CNS, 0.0712 µM; in the experiment on IGROV1 ovarian, 0.256 µM. The TGI with UACC-62 melanoma was determined as 0.682 µM; in the experiment with UO-31 renal, 0.588 µM; in the experiment on KM12 colon, 0.202 µM.
